Patent US20030232871A1 (priority 2002, published 2003)
“Also recorded” adds a separate entry of the source.

Legend:
[1] = target: COX-1 (Homo sapiens, UniProt P23219); conditions: background statement; cited from earlier work
[2] = Moisture sorption (Dynamic Vapor Water Sorption analyzer); format: physicochemical; conditions: 25° C.; for hygroscopicity compared with Form A: up to about 80% RH
Procedure: Moisture sorption data were collected at 25° C. from 0% to 80% RH using a Surface Measurement Systems Dynamic Vapor Water Sorption analyzer. The equilibrium window was for a dm/dT of 0.0003 or a maximum time of 120 minutes.

[3] = True density by helium pycnometry; format: physicochemical
[4] = Thermodynamic parameters from eutectic melting data (ΔG−T and ΔG/T−1/T plots); format: physicochemical; conditions: for Tt (transition temperature): LT form to HT = Form A, calculated as Tt=ΔH/ΔS; for ΔH / ΔS: transition of low temperature form (LT) to HT = Form A, derived from eutectic melting data
Procedure: Based on the Heat of Transition Rule both Forms B and E are believed to be enantiotropically related to Form A, meaning there is a change in the stability relationship between the forms around a transition temperature Tt. Determination of Tt for Forms B and E with respect to Form A was performed by the use of eutectic melting data. Eutectics were formed between a reference compound (RC) and each of Forms A, B and E of parecoxib sodium. Subsequently heat of fusion data were used to derive the free energy difference between the crystal forms at the eutectic temperature (equation I): xej(Gj-Gi)Tei=Δ[…])]} (equation I) wherein xej and xei are the mole fraction of crystal forms j and i respectively in the eutectic; (Gj-Gi) is the free energy difference between crystal forms i and j at Tei; ΔHmej and ΔHmei are the enthalpy of eutectic melting of crystal forms j and i respectively; Tei and Tej are the temperatures of eutectic melting of crystal forms i and j respectively; ΔCpij is the heat capacity change across the eutectic melt; and R is the ideal gas constant. […] By definition, the free energy difference between crystal forms is zero at the transition temperature. The transition temperature given in Table 5 above was calculated according to equation II: Tt=ΔH/ΔS (equation II)

[5] = Solution calorimetry (heat of solution); format: physicochemical; conditions: LT form / Form A pair

COX-1, sequence (P23219 24-599): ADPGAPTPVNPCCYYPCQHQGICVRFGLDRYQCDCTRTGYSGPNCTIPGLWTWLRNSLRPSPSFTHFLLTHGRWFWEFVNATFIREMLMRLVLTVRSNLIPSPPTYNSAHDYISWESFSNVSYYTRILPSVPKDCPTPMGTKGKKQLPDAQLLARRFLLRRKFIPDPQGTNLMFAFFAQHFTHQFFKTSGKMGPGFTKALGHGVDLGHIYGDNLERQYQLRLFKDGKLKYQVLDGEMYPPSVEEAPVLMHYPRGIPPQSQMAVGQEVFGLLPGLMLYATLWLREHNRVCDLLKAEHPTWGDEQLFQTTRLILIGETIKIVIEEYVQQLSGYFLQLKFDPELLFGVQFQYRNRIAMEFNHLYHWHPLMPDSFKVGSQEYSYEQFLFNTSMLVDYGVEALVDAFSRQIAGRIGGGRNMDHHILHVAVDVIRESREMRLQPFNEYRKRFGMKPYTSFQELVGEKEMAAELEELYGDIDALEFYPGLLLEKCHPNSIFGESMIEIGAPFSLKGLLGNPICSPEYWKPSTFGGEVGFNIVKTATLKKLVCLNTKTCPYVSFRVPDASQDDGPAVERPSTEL

Compound | hygroscopicity compared with Form A [2] | true density [3] [g/mL] | Tt (transition temperature) [4] [°C] | ΔH [4] [kcal/mol] | ΔS [4] [J/mole/K] | ΔH from heat of solution data [5] [kcal/mol] | moisture sorbed ([2]; 0-60% RH range) | in vitro inhibitory activity against COX-1 [1] | behaviour above 60% RH ([2]; above 60% RH)
CCC(=O)NS(=O)(=O)c1ccc(-c2c(-c3ccccc3)noc2C)cc1 [Parecoxib] | – | – | – | – | – | – | – | weak | –
CCC(=O)[N-]S(=O)(=O)c1ccc(-c2c(-c3ccccc3)noc2C)cc1.[Na+] [Form E, parecoxib sodium] | less hygroscopic than Form A | 1.42 ± 0.01 | 163.9 | 4.099 | 39.2 | 4.288 | – | – | –
Cc1onc(-c2ccccc2)c1-c1ccc(S(N)(=O)=O)cc1 [valdecoxib] | – | – | – | – | – | – | – | weak | –

The next lines start with results.

hygroscopicity compared with Form A [2] | true density [3] [g/mL] | Tt (transition temperature) [4] [°C] | ΔH [4] [kcal/mol] | ΔS [4] [J/mole/K] | ΔH from heat of solution data [5] [kcal/mol] | moisture sorbed ([2]; 0-60% RH range) | Compound | in vitro inhibitory activity against COX-1 [1] | behaviour above 60% RH ([2]; above 60% RH)
less hygroscopic than Form A | 1.46 ± 0.01 | 163.3 | 3.975 | 38.1 | 3.666 | – | CCC(=O)[N-]S(=O)(=O)c1ccc(-c2c(-c3ccccc3)noc2C)cc1.[Na+] [Form B, parecoxib sodium] | – | –
– | 1.34 ± 0.01 | – | – | – | – | less than 1% | CCC(=O)[N-]S(=O)(=O)c1ccc(-c2c(-c3ccccc3)noc2C)cc1.[Na+] [Form A, parecoxib sodium] | – | deliquesced; also recorded: greater tendency to sorb water and even to deliquesce
